The values that follow come from patent US20240067662A1, “KRAS INHIBITORS” (Bristol-Myers Squibb Company, priority 2022, published 2024).

In the assay the target is GMPPNP-loaded KRAS G12C (Homo sapiens, UniProt P01116, G12C). In words: KRAS G12C RAF Disruption Assay (HTRF). The format is biochemical. The following applies: recombinant GMPPNP-loaded KRAS G12C (5 nM), 20 min with compound; GST-RAF1 RBD (9 nM); HTRF signal; read-out: KRASG12C RAF Disruption Assay (IC50). The method in brief:
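GMPPNP-loaded KRAS G12C (5 nM) was preincubated with compound for 20 min at room temperature in Tris pH 7.5 buffer with NaCl, MgCl2, DTT and BSA. GST-RAF1 RBD (9 nM) was added for 20 min, then SA-Tb (0.25 nM) for 3 h. IC50 was fitted from the HTRF 520/495 ratio.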

GMPPNP-loaded KRAS G12C, sequence (P01116 1-188 isoform P01116-2 G12C): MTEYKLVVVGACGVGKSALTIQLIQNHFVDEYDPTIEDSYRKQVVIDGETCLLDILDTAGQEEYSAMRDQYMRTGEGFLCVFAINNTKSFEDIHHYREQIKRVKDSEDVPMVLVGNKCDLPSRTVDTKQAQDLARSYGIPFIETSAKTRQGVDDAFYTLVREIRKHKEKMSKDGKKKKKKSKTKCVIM

Take `N#Cc1c(N)sc2c(F)ccc(-c3ncc4c(N5CCN(C(=O)/C(F)=C/c6nccs6)CC5)nc(OC[C@@]56CCCN5C[C@H](F)C6)nc4c3F)c12` [Compound 122, 2-amino-7-fluoro-4-(8-fluoro-4-(4-((Z)-2-fluoro-3-(thiazol-2-yl)acryloyl)piperazin-1-yl)-2-(((7aS)-2-fluorotetrahydro-1H-pyrrolizin-7a(5H)-yl)methoxy)pyrido[4,3-d]pyrimidin-7-yl)benzo[b]thiophene-3-carbonitrile]: the IC50 was determined as 6 nM.
As to `CN1CCC[C@H]1COc1nc(N2CCN(C(=O)/C(F)=C/c3ccccn3)[C@@H](CC#N)C2)c2cnc(-c3cccc4ccc(F)cc34)c(F)c2n1` [Example 36, 2-((S)-1-((Z)-2-fluoro-3-(pyridin-2-yl)acryloyl)-4-(8-fluoro-7-(7-fluoronaphthalen-1-yl)-2-(((S)-1-methylpyrrolidin-2-yl)methoxy)pyrido[4,3-d]pyrimidin-4-yl)piperazin-2-yl)acetonitrile], the IC50 turned out to be 150 nM.
The result for `N#CC[C@H]1CN(c2nc(OC[C@@]34CCCN3C[C@H](F)C4)nc3c(F)c(-c4cc(O)ccc4C(F)(F)F)ncc23)CCN1C(=O)/C(F)=C/c1ccccn1` [Compound 94, 2-((S)-4-(8-fluoro-2-(((2R, 7aS)-2-fluorotetrahydro-1H-pyrrolizin-7a(5H)-yl)methoxy)-7-(5-hydroxy-2-(trifluoromethyl)phenyl)pyrido[4,3-d]pyrimidin-4-yl)-1-((Z)-2-fluoro-3-(pyridin-2-yl)acryloyl)piperazin-2-yl)acetonitrile] reads 34 nM; that for `C#Cc1c(F)ccc2cccc(-c3ncc4c(N(C)[C@@H]5CCN(C(=O)/C(F)=C/c6nccs6)C5)nc(OC[C@@]56CCCN5C[C@H](F)C6)nc4c3F)c12` [Compound 118, (Z)-1-((R)-3-((7-(8-ethynyl-7-fluoronaphthalen-1-yl)-8-fluoro-2-(((2R, 7aS)-2-fluorotetrahydro-IH-pyrrolizin-7a(5H)-yl)methoxy)pyrido[4,3-d]pyrimidin-4-yl)(methyl)amino)pyrrolidin-1-yl)-2-fluoro-3-(thiazol-2-yl)prop-2-en-1-one], 30 nM; that for `C#Cc1cccc2cccc(-c3ncc4c(N5CCCN(C(=O)/C(F)=C/c6ccccn6)CC5)nc(OC[C@@]56CCCN5C[C@H](F)C6)nc4c3F)c12` [Example 77, (Z)-1-(4-(7-(8-ethynylnaphthalen-1-yl)-8-fluoro-2-(((2R, 7aS)-2-fluorotetrahydro-1H-pyrrolizin-7a(5H)-yl)methoxy)pyrido[4,3-d]pyrimidin-4-yl)-1,4-diazepan-1-yl)-2-fluoro-3-(pyridin-2-yl)prop-2-en-1-one], 120 nM.
For `N#CC[C@H]1CN(c2nc(OC[C@@]34CCCN3C[C@H](F)C4)nc3c(F)c(-c4cc(F)ccc4F)ncc23)CCN1C(=O)/C(F)=C/c1ccccn1` [Example 40, 2-((S)-4-(7-(2,5-difluorophenyl)-8-fluoro-2-(((2R, 7aS)-2-fluorotetrahydro-1H-pyrrolizin-7a(5H)-yl)methoxy)pyrido[4,3-d]pyrimidin-4-yl)-1-((Z)-2-fluoro-3-(pyridin-2-yl)acryloyl)piperazin-2-yl)acetonitrile], the IC50 was found to be 880 nM.
The result for `C#Cc1c(F)ccc2cccc(-c3ncc4c(N(C)[C@@H]5CCN(C(=O)/C(F)=C/c6ccccn6)C5)nc(OC[C@@]56CCCN5C[C@H](F)C6)nc4c3F)c12` [Compound 117, (Z)-1-((R)-3-((7-(8-ethynyl-7-fluoronaphthalen-1-yl)-8-fluoro-2-(((2R, 7aS)-2-fluorotetrahydro-IH-pyrrolizin-7a(5H)-yl)methoxy)pyrido[4,3-d]pyrimidin-4-yl)(methyl)amino)pyrrolidin-1-yl)-2-fluoro-3-(pyridin-2-yl)prop-2-en-1-one] reads 9 nM; that for `C#Cc1cccc2cccc(-c3ncc4c(N5CCC6(CCN6C(=O)/C(F)=C/c6ncccn6)C5)nc(OC[C@@]56CCCN5C[C@H](F)C6)nc4c3F)c12` (single isomer, unassigned) [Compound 105], 9700 nM.
On to `C#Cc1cccc2cccc(-c3ncc4c(N(C)C5CCN(C(=O)/C(F)=C/c6ccccn6)C5C)nc(OC[C@@]56CCCN5C[C@H](F)C6)nc4c3F)c12` (single isomer, unassigned) [Example 74 trans isomer 2], for which the IC50 amounted to 110 nM.
As for `C#Cc1cccc2cccc(-c3ncc4c(N(C)C5CCN(C(=O)/C(F)=C/c6ccccn6)CC5)nc(OC[C@@]56CCCN5C[C@H](F)C6)nc4c3F)c12` [Compound 131, (Z)-1-(4-((7-(8-ethynylnaphthalen-1-yl)-8-fluoro-2-(((2R, 7aS)-2-fluorotetrahydro-1H-pyrrolizin-7a(5H)-yl)methoxy)pyrido[4,3-d]pyrimidin-4-yl)(methyl)amino)piperidin-1-yl)-2-fluoro-3-(pyridin-2-yl)prop-2-en-1-one], the IC50 was 4200 nM.
Turning to `C#Cc1cccc2cccc(-c3ncc4c(N(C)[C@H]5CN(C(=O)/C(F)=C/c6cnccn6)C[C@H]5F)nc(OC[C@@]56CCCN5C[C@H](F)C6)nc4c3F)c12` [Compound 130, (Z)-1-((3S,4R)-3-((7-(8-ethynylnaphthalen-1-yl)-8-fluoro-2-(((2R, 7aS)-2-fluorotetrahydro-1H-pyrrolizin-7a(5H)-yl)methoxy)pyrido[4,3-d]pyrimidin-4-yl)(methyl)amino)-4-fluoropyrrolidin-1-yl)-2-fluoro-3-(pyrazin-2-yl)prop-2-en-1-one], the IC50 was 60 nM.
For the compound `C#Cc1c(F)ccc2cccc(-c3ncc4c(N5CCN(C(=O)/C(F)=C/c6nccs6)CC5)nc(OC[C@@]56CCCN5C[C@H](F)C6)nc4c3F)c12` [Example 53, (Z)-1-(4-(7-(8-ethynyl-7-fluoronaphthalen-1-yl)-8-fluoro-2-(((2R, 7aS)-2-fluorotetrahydro-1H-pyrrolizin-7a(5H)-yl)methoxy)pyrido[4,3-d]pyrimidin-4-yl)piperazin-1-yl)-2-fluoro-3-(thiazol-2-yl)prop-2-en-1-one], the IC50 is 44 nM.
Consider `CN1CCC[C@H]1COc1nc(N2CCN(C(=O)/C(F)=C/c3nccs3)[C@@H](CC#N)C2)c2cnc(-c3cccc4ccc(F)cc34)c(F)c2n1` [Example 37, 2-((S)-1-((Z)-2-fluoro-3-(thiazol-2-yl)acryloyl)-4-(8-fluoro-7-(7-fluoronaphthalen-1-yl)-2-(((S)-1-methylpyrrolidin-2-yl)methoxy)pyrido[4,3-d]pyrimidin-4-yl)piperazin-2-yl)acetonitrile], for which the IC50 was 130 nM.
`C#Cc1cccc2cccc(-c3ncc4c(N5C[C@H]6CN(C(=O)/C(F)=C/c7ccccn7)C[C@H]6C5)nc(OC[C@@]56CCCN5C[C@H](F)C6)nc4c3F)c12` [Compound 100, (Z)-1-((3aR, 6aS)-5-(7-(8-ethynylnaphthalen-1-yl)-8-fluoro-2-(((2R, 7aS)-2-fluorotetrahydro-1H-pyrrolizin-7a(5H)-yl)methoxy)pyrido[4,3-d]pyrimidin-4-yl)hexahydropyrrolo[3,4-c]pyrrol-2(1H)-yl)-2-fluoro-3-(pyridin-2-yl)prop-2-en-1-one]: the IC50 was determined as 5300 nM.
For `N#CC[C@H]1CN(c2nc(OC[C@@]34CCCN3C[C@H](F)C4)nc3c(F)c(-c4cccc(F)c4C(F)(F)F)ncc23)CCN1C(=O)/C(F)=C/c1nccs1` [Example 71, 2-((S)-1-((Z)-2-fluoro-3-(thiazol-2-yl)acryloyl)-4-(8-fluoro-7-(3-fluoro-2-(trifluoromethyl)phenyl)-2-(((2R, 7aS)-2-fluorotetrahydro-1H-pyrrolizin-7a(5H)-yl)methoxy)pyrido[4,3-d]pyrimidin-4-yl)piperazin-2-yl)acetonitrile], the IC50 is 40 nM.
To `C#Cc1cccc2cccc(-c3ncc4c(N5CCCN(C(=O)/C(F)=C/c6nccs6)CC5)nc(OC[C@@]56CCCN5C[C@H](F)C6)nc4c3F)c12` [Compound 78, (Z)-1-(4-(7-(8-ethynylnaphthalen-1-yl)-8-fluoro-2-(((2R, 7aS)-2-fluorotetrahydro-1H-pyrrolizin-7a(5H)-yl)methoxy)pyrido[4,3-d]pyrimidin-4-yl)-1,4-diazepan-1-yl)-2-fluoro-3-(thiazol-2-yl)prop-2-en-1-one] belongs 120 nM; to `N#CC[C@H]1CN(c2nc(OC[C@@]34CCCN3C[C@H](F)C4)nc3c(F)c(-c4csc5ccccc45)ncc23)CCN1C(=O)/C(F)=C/c1ccccn1` [Example 35, 2-((S)-4-(7-(benzo[b]thiophen-3-yl)-8-fluoro-2-(((2R, 7aS)-2-fluorotetrahydro-1H-pyrrolizin-7a(5H)-yl)methoxy)pyrido[4,3-d]pyrimidin-4-yl)-1-((Z)-2-fluoro-3-(pyridin-2-yl)acryloyl)piperazin-2-yl)acetonitrile], 430 nM; to `N#CC[C@H]1CN(c2nc(OC[C@@]34CCCN3C[C@H](F)C4)nc3c(F)c(N4CCOc5cccc(F)c54)ncc23)CCN1C(=O)/C(F)=C/c1ccccn1` [Example 60, 2-((S)-1-((Z)-2-fluoro-3-(pyridin-2-yl)acryloyl)-4-(8-fluoro-7-(5-fluoro-2,3-dihydro-4H-benzo[b][1,4]oxazin-4-yl)-2-(((2R, 7aS)-2-fluorotetrahydro-1H-pyrrolizin-7a(5H)-yl)methoxy)pyrido[4,3-d]pyrimidin-4-yl)piperazin-2-yl)acetonitrile], 180 nM.
Regarding `C#Cc1c(F)ccc2cc(O)cc(-c3ncc4c(N5C[C@H]6CC[C@@H](C5)N6C(=O)/C(F)=C/c5cc(C)ccn5)nc(OC[C@@]56CCCN5C[C@H](F)C6)nc4c3F)c12` [Compound 3, (Z)-1-((1R, 5S)-3-(7-(8-ethynyl-7-fluoro-3-hydroxynaphthalen-1-yl)-8-fluoro-2-(((2R, 7aS)-2-fluorotetrahydro-1H-pyrrolizin-7a(5H)-yl)methoxy)pyrido[4,3-d]pyrimidin-4-yl)-3,8-diazabicyclo[3.2.1]octan-8-yl)-2-fluoro-3-(4-methylpyridin-2-yl)prop-2-en-1-one], the IC50 was 19 nM.

As usually defined, the IC50 is the concentration that inhibits the measured activity by half.
